± gives the standard deviation of the averaged measurements.
Tests used:
Assay in all cases: level (log10 ratio to DMSO vehicle control); higher = higher biomarker level / cell amount than vehicle control
Details in all cases: in DMSO
[1] = compound: FC(F)(F)C(F)(F)C(F)(F)C(F)(F)C(F)(F)C(F)(F)C(F)(F)CCI [1-Iodo-1H,1H,2H,2H-perfluorononane]
Method: (§1)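 BioMAP Diversity Plus panel of 12 human primary cell co-culture systems (3C, 4H, LPS, SAg, BT, BF4T, BE3C, CASM3C, HDF3CGF, KF3CT, MyoF, Mphg). Compounds were added 1 h before stimulation and left for 24 h (MyoF 48 h; BT 72 h for soluble read-outs or 6 d for IgG). Biomarkers were read by ELISA, cytotoxicity by SRB, PBMC viability and proliferation by Alamar Blue. Each well value was divided by the mean of 8 DMSO control wells on the same plate and log10 transformed; duplicate blinded samples were tested at 4 concentrations.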

[2] = compound: OCC(F)(F)C(F)(F)C(F)(F)F [1H,1H-Heptafluorobutanol]
Method: as §1

[3] = compound: O=S(=O)(O)C(F)(F)C(F)(F)C(F)(F)C(F)(F)F [Perfluorobutanesulfonic acid]
Method: as §1

[4] = compound: O=C(O)C(F)(F)C(F)(F)C(F)(F)C(=O)O [Hexafluoroglutaric acid]
Method: as §1

[5] = compound: C=CC(=O)OCCC(F)(F)C(F)(F)C(F)(F)C(F)(F)F [2-(Perfluorobutyl)ethyl acrylate]
Method: as §1

[6] = compound: C=C(C)C(=O)OCC(F)(F)C(F)(F)C(F)(F)C(F)(F)C(F)(F)C(F)(F)C(F)(F)F
Method: as §1

[7] = compound: NC(=O)C(F)(F)C(F)(F)C(F)(F)C(F)(F)C(F)(F)C(F)(F)C(F)(F)F [Perfluorooctanamide]
Method: as §1

Row | Test System | level (log10) ([1]; 6700 nM) | level (log10) ([1]; 20000 nM) | level (log10) ([2]; 6700 nM) | level (log10) ([2]; 20000 nM) | level (log10) ([2]; 60000 nM) | level (log10) ([3]; 6700 nM) | level (log10) ([3]; 20000 nM) | level (log10) ([3]; 60000 nM) | level (log10) ([4]; 6700 nM) | level (log10) ([4]; 20000 nM) | level (log10) ([4]; 60000 nM) | level (log10) ([5]; 6700 nM) | level (log10) ([5]; 20000 nM) | level (log10) ([5]; 60000 nM) | level (log10) ([6]; 6700 nM) | level (log10) ([6]; 20000 nM) | level (log10) ([7]; 6700 nM) | level (log10) ([7]; 20000 nM) | level (log10) ([7]; 60000 nM)
1 | BT:PBMC Cytotoxicity | 0.0115 ± 0.0035 | 0.0115 ± 0.011 | 0.0095 ± 0.026 | -0.015 ± 0.0099 | 0.0105 ± 0.015 | 0.03 ± 0.044 | 0.039 ± 0.027 | 0.057 ± 0.0057 | 0.019 ± 0.027 | -0.017 ± 0.0071 | 0.005 ± 0.014 | -0.028 ± 0.0014 | -0.073 ± 0.018 | -0.251 ± 0.057 | 0.0145 ± 0.025 | 0.0105 ± 0.029 | 0.012 ± 0.024 | 0.0275 ± 0.025 | 0.0635 ± 0.0035
2 | BT:Secreted IgG | -0.0075 ± 0.06 | 0.0115 ± 0.074 | 0.0305 ± 0.0078 | 0.0055 ± 0.053 | 0.027 ± 0.023 | 0.0005 ± 0.00071 | -0.0055 ± 0.023 | -0.016 ± 0.052 | -0.026 ± 0.04 | 0.055 ± 0.013 | 0.019 ± 0.048 | 0.025 ± 0.017 | -0.053 ± 0.054 | -0.359 ± 0.049 | 0.021 ± 0.055 | 0.024 ± 0.013 | 0.0065 ± 0.0064 | 0.005 ± 0.023 | 0.0215 ± 0.025
3 | BT:sIL-2 | 0.0055 ± 0.0035 | -0.0045 ± 0.019 | -0.0065 ± 0.077 | -0.0265 ± 0.011 | 0.0365 ± 0.029 | -0.0155 ± 0.079 | -0.059 ± 0.044 | -0.025 ± 0.04 | -0.006 ± 0.11 | 0.0205 ± 0.039 | 0.061 ± 0.013 | 0.0045 ± 0.1 | -0.011 ± 0.016 | -0.511 ± 0.23 | 0.012 ± 0.0099 | 0.0075 ± 0.047 | 0.0115 ± 0.063 | 0.0045 ± 0.084 | -0.176 ± 0.17
4 | BT:sIL-6 | 0.009 ± 0.017 | -0.0575 ± 0.042 | 0.006 ± 0.044 | 0.049 ± 0.0071 | 0.0385 ± 0.043 | -0.035 ± 0.061 | 0.004 ± 0.067 | 0.012 ± 0.02 | -0.0105 ± 0.11 | 0.0275 ± 0.021 | -0.0155 ± 0.088 | -0.063 ± 0.041 | -0.153 ± 0.0028 | -0.76 ± 0.15 | 0.016 ± 0.0057 | -0.019 ± 0.059 | 0.01 ± 0.023 | 0.0355 ± 0.03 | -0.07 ± 0.025
5 | BT:sIL-17A | 0.0035 ± 0.1 | -0.0305 ± 0.15 | -0.145 ± 0.19 | -0.166 ± 0.005 | -0.0935 ± 0.25 | -0.0215 ± 0.14 | 0.157 ± 0.016 | 0.021 ± 0.2 | 0.02 ± 0.073 | -0.0205 ± 0.21 | -0.0585 ± 0.12 | -0.217 ± 0.17 | -0.465 ± 0.067 | -1.03 ± 0.46 | 0.0535 ± 0.073 | -0.0375 ± 0.22 | 0.122 ± 0.016 | 0.0965 ± 0.0035 | 0.034 ± 0.26
6 | BT:sIL-17F | 0.062 ± 0.023 | 0.0585 ± 0.011 | -0.007 ± 0.035 | -0.0425 ± 0.29 | -0.0385 ± 0.032 | 0.008 ± 0.0057 | 0.0145 ± 0.04 | -0.0225 ± 0.0064 | 0.046 ± 0.071 | 0.0335 ± 0.05 | -0.004 ± 0.0085 | -0.169 ± 0.0071 | -0.393 ± 0.017 | -0.673 ± 0.061 | 0.0315 ± 0.0035 | -0.0245 ± 0.063 | 0.0205 ± 0.0064 | -0.0165 ± 0.035 | -0.0955 ± 0.1
7 | BT:sTNF-alpha | 0.018 ± 0.054 | 0.063 ± 0.12 | 0.078 ± 0.055 | 0.0915 ± 0.057 | 0.011 ± 0.083 | 0.0295 ± 0.011 | 0.0515 ± 0.071 | 0.015 ± 0.011 | 0.026 ± 0.13 | 0.0415 ± 0.039 | 0.116 ± 0.039 | -0.095 ± 0.1 | -0.192 ± 0.0085 | -0.767 ± 0.3 | -0.042 ± 0.0099 | -0.0145 ± 0.013 | -0.0175 ± 0.011 | 0.0215 ± 0.056 | -0.129 ± 0.095
8 | LPS:CCL2/MCP-1 | -0.008 ± 0.016 | 0.0145 ± 0.04 | -0.0125 ± 0.018 | -0.0055 ± 0.0035 | -0.001 ± 0.017 | -0.0285 ± 0.057 | -0.021 ± 0.027 | -0.035 ± 0.0014 | -0.0135 ± 0.026 | -0.012 ± 0.011 | -0.004 ± 0.013 | -0.0075 ± 0.0035 | -0.02 ± 0.0085 | -0.0255 ± 0.029 | 0.007 ± 0.0071 | 0.017 ± 0.0085 | -0.0295 ± 0.015 | 0.001 ± 0.0099 | -0.0765 ± 0.012
